How the values were obtained:
[1] = tested on: THP1Blue cells, TLR1/TLR2/TLR4; test: THP1Blue NF-κB-SEAP reporter assay, non-NOD agonists (Pam3CSK4, LPS, HKLM); type: cell-based, human; details: Pam3CSK4, LPS or HKLM
Experimental: For HEKBlue assay, cells were seeded into clear 96‐well plates at 7.5 × 10^3 cells/well and allowed to attach for 48 h. On the day of the experiment, media was changed to 100 μl of HEKBlue detection media (InvivoGen). Inhibitors were diluted and added in 0.5 μl DMSO 15 min prior to the addition of 1 ng/ml L18‐MDP (InvivoGen). After 8–9 h, absorbance at 620 nm was measured using Victor3V plate reader (Perkin Elmer, Waltham, MA). Values of media‐only wells were subtracted and %inhibition for each compound concentration relative to the DMSO/L18‐MDP‐treated controls was calculated. […] After induction, 20 μl of media was mixed with 180 μl of QUANTI‐Blue reagent (InvivoGen) and incubated at 37°C for 3–4 h, followed by absorbance measurement at 620 nm. IC50 values were calculated as described for HEKBlue assay. […]
(§1) For HEKBlue assay, cells were seeded into clear 96 well plates at 7.5x10^3 cells/well and allowed to attach for 48 h. […] After 8-9 h, absorbance at 620 nm was measured using Victor3V plate reader (Perkin Elmer, Waltham, MA). Values of media-only wells were subtracted and %inhibition for each compound concentration relative to the DMSO/L18-MDP-treated controls were calculated.
Inhibition values + StDev were fitted by non-linear regression using Prism software (GraphPad Software, La Jolla, CA) to calculate IC50 values. […] IC50 values were calculated as described for HEKBlue assay. […]

[2] = tested on: U2OS/NOD2, THP1, RAW264.7 and HEKBlue cells; test: CellTiter-Glo viability assay; type: cell-based; details: U2OS/NOD2, THP1, RAW264.7, HEKBlue; 24 h; up to 1 µM
Experimental: Cell viability was determined using CellTiter‐Glo assay (Promega). […] Kinase activities were determined using ADPGlo assay (Promega). • Structure of the active conformation of RIPK2 kinase domain in complex with AMP‐PNP (PDB ID: 5AR3). Figure depicts locations of the adenine and deep pockets. […] Key residues discussed in the text are shown as sticks (Lys/Glu Glu‐in bond—bottom left, catalytic Asp residues (Asp146/Asp164)—bottom right, R‐spine—right). P‐loop of CSLP18 structure is shown in yellow. Structured segment of activation segment (AS) observed in active conformation structures is shown in red. • Structure of RIPK2 kinase domain (gray ribbons) in complex with CSLP18 (orange) (PDB ID 6FU5). Sticks are shown for residues in the vicinity of the cavity surrounding the key inhibitor position R1. A 2Fo‐Fc electron density map contoured at 1 sigma is shown for the inhibitor and the residues lining the key region around inhibitor R^1 position. • Molecular docking model of RIPK2 kinase domain in complex with CSLP37 (yellow) based on RIPK2/CSLP18 structure (Fig 3D). […]
GST-BIR2-XIAP as indicated. Intensity quantification of SPOTs was performed using ImageJ software (Schneider et al., 2012). […]
for cell death) or vehicle for 24h. Viability was determined using the CellTiter-Glo® luminescent cell […]

[3] = tested on: RAW264.7 cells (TLR4 activation by LPS); test: TNF ELISA, LPS-stimulated RAW264.7 cells; type: cell-based, mouse; details: LPS 10 ng/ml; inhibitor even at 1 μM
Experimental: Figure EV3 Activity of select CSLP inhibitors in MDP and LPS‐stimulated RAW264.7 macrophages • A, B ELISA measurement of TNF release from RAW264.7 cells treated with MDP (10 μg/ml, 24 h) (A) or LPS (10 ng/ml) (B) and CSLP compounds as indicated. Values are expressed relative to the TNF release in cells treated with MDP without inhibitor (A) or as ng/ml TNF (B). Data information: Data represent the mean ± SEM of 2–3 independent experiments. Statistical significance in (B) is determined in relation to […] samples without inhibitor *P < 0.05, **P < 0.01, n.s., not significant. Two‐tailed unpaired Student's t‐test was used to determine statistical significance. […]
as §1
Inhibition values + StDev were fitted by non-linear regression using Prism software (GraphPad Software, La Jolla, CA) to calculate IC50 values. […] After induction, 20 μl of media was mixed with 180 μl of QUANTI-Blue reagent (InvivoGen) and incubated at 37 °C for 3-4 h, followed by absorbance measurement at 620 nm. […]

CCCS(=O)(=O)Nc1cc(-c2cc(-c3ccc(N4CCNCC4)cc3)cnc2N)cc(OC)c1OC [CSLP43]
effect on NF-κB responses to non-NOD agonists [1]: no detected effect
toxicity in the cell lines used [2]: did not have measurable toxicity
TNF release following LPS [3]: neither CSLP37 nor CSLP43 attenuated

CCCS(=O)(=O)Nc1cc(-c2cc(-c3ccc(N4CCNCC4)cc3)cnc2N)cc(F)c1OC [CSLP37]
effect on NF-κB responses to non-NOD agonists [1]: no detected effect
toxicity in the cell lines used [2]: did not have measurable toxicity
TNF release following LPS [3]: neither CSLP37 nor CSLP43 attenuated

— article PMC6120666 (The EMBO Journal, 2018)
